Assays:
[1] = system: histone deacetylase; assay: Detection of change in acetylation of histone in cells with anti-acetylated lysine antibody (cell ELISA); format: cell-based, human; conditions: Hela cells, 8 hours
Protocol: Hela cells were spread onto a 96-well plate for cell culture by adjusting 2500 cells per well (culture medium was DMEM, 200 μl thereof was used per well), and cultured at 37° C. overnight in a 5% CO2 incubator to tightly attach the cells onto the plate. • 3. Treatment with known Inhibitors for Histone Deacetylase […]
The medium was aspirated from each well without touching the cells, and each well was washed with 200 μl of PBS three times. After washing, 200 μl of 100% methanol cooled at −20° C. in advance was added to each well, left at room temperature for 5 min to fix the cells. […] was completely aspirated and dried.
The anti-acetylated lysine residue antibody was diluted to 0.5 μg/ml with the antibody dilution buffer and 100 μl thereof was added to each washed well, and left at 30° C. for 1 hour (the first reaction). After the first reaction, each well was washed with the washing buffer in the same manner, and 100 μl of goat anti-rabbit Ig (H+L) horse radish peroxidase label (MBL) diluted 2000 folds with the antibody dilution buffer was added to each well, and left at 30° C. for 1 hour (the second reaction). Each well was washed with washing buffer, and 100 μl of horse radish peroxidase substrate solution was added to each well and incubated at 30° C. for 30 min for the coloring reaction. 100 μl of the 1.5 N phosphate solution was added thereto to terminate the coloring reaction. Absorbance at 450 nm was measured using a microtiter plate reader.
As a result, an increase of absorbance was observed depending on the concentration of the deacetylase inhibitors (FIGS. 13 and 14, and Tables 1 and 2). In this measurement, a stronger inhibition of deacetylation of histone in cells accompanies a larger degree of acetylation of histone, and absorbance was increased depending on the increase in the concentration of antigen (an acetylated histone). Therefore, an inhibition of the deacetylase activity correlates to an increase of absorbance.

[2] = system: CMV promoter; assay: CMV promoter activity in pcDNA3-GFP-harboring CHO cells detected using the GFP reporter gene; format: cell-based; conditions: 8 hours
Protocol: A plasmid vector (pcDNA3-GFP), in which GFP gene was introduced into a multicloning site immediately downstream of CMV promoter in pcDNA3 expression vector for mammalian cells in the forward direction was prepared by the standard method using E. coli. • 2. Introduction of the Plasmid Vector into Cells and Screening of Plasmid-Harboring Cells
pcDNA3-GFP was introduced into CHO cells by the lipofection method, and cultured for 24 hours at 37° C. in a 5% CO2 incubator (4 ml of DMEM was used as a culture medium per 6 cm-plate). Neomycin, an antibiotic, the resistance gene of which is carried on pcDNA3 plasmid, was added to the medium, and cultured for 2 weeks to select cells harboring pcDNA3-GFP. During this screening, the medium was replaced with a new one containing neomycin every four days. • 3. Screening of the Plasmid-Harboring Cells in which the Promoter Activity is Inhibited
The clones of the screened cells were transferred to separate plates and cultured. […] Several clones in which emission of the product of the GFP gene ligated downstream of CMV promoter was weak or was hardly detected were selected.
These cells were spread onto a 96-well plate for cell culture, adjusted to about 2500 cells per well (200 μl of DMEM was used as the culture medium per well), and cultured overnight (about 10 to 20 hours) at 37° C. in a 5% CO2 incubator to tightly attach the cells onto the plate. […]
The amount of GFP proteins expressing in cells in each well of the treated 96-well plate was measured with a fluorescent multiplate reader as change of fluorescence intensity.
As a result, an increase of florescence intensity was observed depending on the concentration of the deacetylase inhibitors (FIGS. 15, 16 and Tables 3 and 4).

[3] = molecular target: T1, Sub p53-1
T1 chain: STSRHKKLMFKTE

[4] = molecular target: T2, Sub p53-2
T2 chain: SHLKSKKGQSTSR

[5] = system: sub p53-1 and sub p53-2 peptides; assay: ELISA system for measuring the acetyltransferase activity (liquid and solid phase); format: biochemical, human; conditions: 0 to 10 μg/ml; liquid and solid phases; depending on the concentration; FIGS. 9 and 10
Protocol: Two peptide substrates “Sub p53-1” (SEQ ID NO: 13/Bio-STSRHKKLMFKTE) and “Sub p53-2” (SEQ ID NO: 14/Bio-SHLKSKKGQSTSR) comprising the 373rd and 382nd lysine residues of the amino acid sequence of human p53, respectively, reported as an acetylation sites of acetyltransferase, were prepared by a peptide synthesizer. Amino acids in the peptide are shown in one-letter codes, and “Bio” at the amino ends means biotin. Ninety percent or higher purity was confirmed by HPLC. “Sub p53-1” and “Sub-p53-2” were composed of amino acids 376 to 388 and amino acids 367 to 379, respectively. […] The amplified PCR product was subcloned to pGEX, expressed as a fusion with GST, and purified (GST-p53 Cter). • (2) Preparation of a Peptide Substrate, “GST-p53 Cter” and a Streptoavidin Sensitized Plate […]
The synthesized peptide substrates and a recombinant acetyltransferase were reacted in the liquid phase, and the enzyme activity was measured by the ELISA system using a microtiter plate. […] 100 μl of 1.5 N phosphate solution were added to terminate the coloring reaction, and absorbance at 450 nm was measured using a microtiter plate reader. • Solid Phase Analysis System (Refer to FIG. 2) […]

Molecule: CCCC(=O)O [S. B., butyric acid]
- Absorbance at 450 nm ([1]; S. B. concentration 0.012 mM): 0.091
- Absorbance at 450 nm ([1]; S. B. concentration 0.049 mM): 0.077
- Absorbance at 450 nm ([1]; S. B. concentration 0.195 mM): 0.097
- Absorbance at 450 nm ([1]; S. B. concentration 0.78 mM): 0.136
- Absorbance at 450 nm ([1]; S. B. concentration 3.13 mM): 0.306
- Absorbance at 450 nm ([1]; S. B. concentration 12.5 mM): 0.551
- Absorbance at 450 nm ([1]; S. B. concentration 50 mM): 0.545
- Relative fluorescence intensity (%) ([2]; S. B. concentration 0.012 mM): 8.5%
- Relative fluorescence intensity (%) ([2]; S. B. concentration 0.049 mM): 7.8%
- Relative fluorescence intensity (%) ([2]; S. B. concentration 0.195 mM): 13.3%
- Relative fluorescence intensity (%) ([2]; S. B. concentration 0.78 mM): 15.7%
- Relative fluorescence intensity (%) ([2]; S. B. concentration 3.13 mM): 50.3%
- Relative fluorescence intensity (%) ([2]; S. B. concentration 12.5 mM): 98.5%
- Relative fluorescence intensity (%) ([2]; S. B. concentration 50 mM): 100%

Molecule: CC(/C=C/C(=O)NO)=C\[C@@H](C)C(=O)c1ccc(N(C)C)cc1 [TSA, trichostatin A]
- Absorbance at 450 nm ([1]; TSA concentration 0.5 nM): 0.056
- Absorbance at 450 nm ([1]; TSA concentration 1.95 nM): 0.056
- Absorbance at 450 nm ([1]; TSA concentration 7.8 nM): 0.041
- Absorbance at 450 nm ([1]; TSA concentration 31.3 nM): 0.071
- Absorbance at 450 nm ([1]; TSA concentration 125 nM): 0.095
- Absorbance at 450 nm ([1]; TSA concentration 500 nM): 0.278
- Absorbance at 450 nm ([1]; TSA concentration 2000 nM): 0.476
- Relative fluorescence intensity (%) ([2]; TSA concentration 0.5 nM): 2.2%
- Relative fluorescence intensity (%) ([2]; TSA concentration 1.95 nM): 1.8%
- Relative fluorescence intensity (%) ([2]; TSA concentration 7.8 nM): 5.1%
- Relative fluorescence intensity (%) ([2]; TSA concentration 31.3 nM): 12.3%
- Relative fluorescence intensity (%) ([2]; TSA concentration 125 nM): 34.2%
- Relative fluorescence intensity (%) ([2]; TSA concentration 500 nM): 73.1%
- Relative fluorescence intensity (%) ([2]; TSA concentration 2000 nM): 100%

B1: recombinant CBP (protein)
chain: QNRYHFCEKCFTEIQGENVTLGDDPSQPQTTISKDQFEKKKNDTLDPEPFVDCKECGRKMHQICVLHYDIIWPSGFVCDNCLKKTGRPRKENKFSAKRLQTTRLGNHLEDRVNKFLRRQNHPEAGEVFVRVVASSDKTVEVKPGMKSRFVDSGEMSESFPYRTKALFAFEEIDGVDVCFFGMHVQEYGSDCPPPNTRRVYISYLDSIHFFRPRCLRTAVYHEILIGYLEYVKKLGYVTGHIWACPPSEGDDYIFHCHPPDQKIPKPKRLQEWYKKMLDKAFAERIIHDYKDIFKQATEDRLTSAKELPYFEGDFWPNVLEESIKELEQEEEERKKEESTAASETTEGSQGDSKNAKKKNNKKTNKNKSSISRANKKKPSMPNVSNDLSQKLYATMEKHKEVFFVIHLHAGPVINTLPPIVDPDPLLSCDLMDGRDAFLTLARDKHWEFSSLRRSKWSTLCMLVELHTQGQDRFVYTCNEC
- acetyltransferase activity (ELISA with anti-acetylated peptide antibody, absorbance at 450 nm; liquid and solid phase) [3]: the acetyltransferase activities to "subp53-1" and "sub p53-2" peptides depending on the concentration of CBP were detected
- acetyltransferase activity (ELISA with anti-acetylated peptide antibody, absorbance at 450 nm; liquid and solid phase) [4]: the acetyltransferase activities to "subp53-1" and "sub p53-2" peptides depending on the concentration of CBP were detected
- acetyltransferase activities to sub p53-1 and sub p53-2 peptides [5]: detected

Source: patent US6884597B1, “Method for detecting acetyltransferase and deacetylase activities and method for screening inhibitors or enhancers of these enzymes” (Medical & Biological Laboratories, Co., Ltd., priority 1998, dated 2005)
